The text below walks through data of patent publication US6423737B1, “Benzamidoxime prodrugs as antipneumocystic agents” (The University of North Carolina at Chapel Hill, priority 1995, dated 2002).

Data set [1] relates to Pneumocystis carinii. In words: Anti-P. carinii activity in immunosuppressed rat model (lung cyst counts). It counts as in vivo, Sprague-Dawley rats. Conditions: immunosuppressed rat model; orally by gavage. As to the method:
The activity of the compounds of Formula I against P. carinii was carried out according to an established method. See Tidwell, R. R., et al., J. Protozool. […] Agents Chemother. […] Agents Chemother. […] Briefly, male Sprague-Dawley rats (barrier raised, not certified virus-free) weighing 150-200 g each, were obtained (Hilltop Laboratories, Scottsdale, Pa.). Immediately upon arrival, the animals were caged individually and begun on a low protein (8%) diet and on drinking water containing tetracycline (0.5 mg/mL) and dexamethasone (1.0 μ/mL). This regimen was continued for eight weeks. At the beginning of the seventh week, animals were divided into groups of 8 or more, and the test compounds were administered for 14 days. Saline and pentamidine-treated groups were included as controls.
Animals were sacrificed at the end of the eighth week by chloroform inhalation. The left lung was weighed, ground through a No. 60 wire mesh screen, and suspended 1:10 (wt/vol) in 10 mM β-mercaptoethanol-Hanks' balanced salts solution (HBSS) without cations. Slides were prepared by spotting 5 μL of lung homogenate diluted 1:10 in HBSS with β-mercaptoethanol and allowed to air dry. The slides were stained with cresyl violet, and the cysts were counted by a blinded protocol. The number of cysts per gram of original lung tissue was calculated, and the groups were reported as the percentages of saline-treated controls.
The anti-P. carinii value for each compound is expressed as the percent of cysts in the treatment group as compared to the saline control group. Values are also compared to a positive control group consisting of animals treated intravenously with pentamidine.

Data set [2] relates to Pneumocystis carinii. Conditions: immunosuppressed rat model, D. W. Boykin et al., J. Med. Chem. 38, 912 (1995); cited from earlier work.
The nature of data set [3]: Subjective scale of toxicity and tolerance during treatment in the immunosuppressed rat model. Conditions: subjective scale.
Source text: ^b subjective scale of toxicity. […] In general, the larger the value the more severe the toxicity, with values greater than 2 indicating the death of some animals

Consider `N=C(N)c1ccc(-c2ccc(-c3ccc(C(=N)N)cc3)o2)cc1` [Compound 9, 2,5-bis-[4-amidinophenyl]furan, reference compound], for which the “activity on oral administration, furan series (in words)” value in the data set with Pneumocystis carinii [1] is “significantly less”. Besides, in the data set on Pneumocystis carinii [2], the “activity and toxicity compared with pentamidine on intravenous dosage” value is “more active and less toxic than pentamidine”. Moreover, the “Toxicity, IV DOSING” value in data set [3] (0.03 μmol/kg/day) is given as 0; in data set [3] (0.3 μmol/kg/day), 0; in data set [3] (2.7 μmol/kg/day), 0; in data set [3] (13.3 μmol/kg/day), 0; in data set [3] (26.6 μmol/kg/day), “+1”. In addition, the “Toxicity, ORAL DOSING” value worked out at 0 in data set [3] (39.8 μmol/kg/day) and 0 in data set [3] (66.3 μmol/kg/day, larger = more severe).
